Data published in PubChem BioAssay AID248 (DTP/NCI, 2004).
Several values for one entry are separate records, joined by “and”; a condition that tells them apart may be missing. Equal entries are not always repeated. Inconclusive results and toxic doses are left out. Rule as the data show it: active = T/C of 150% or more; inactive = T/C below 125%. Peptide text beside a SMILES is read from it. * marks the point of attachment. Cbz = O=C(OCc1ccccc1)*

Test system: L1210 leukemia ip in BDF1 mice, survival T/C
Assay: NCI In Vivo Anticancer Drug Screen. Data for tumor model L1210 Leukemia (intraperitoneal) in B6D2F1 (BDF1) mice
Conditions: endpoint: mean survival time, higher = longer survival
Method in brief: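 Value reflects the ratio of survival in compound-treated mice to survival in vehicle-treated controls, with both groups carrying the same transplanted tumor.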

[1] = dose: 100.0 mg/kg/injection, schedule: Q04DX002 (ip), vehicle: Klucel (hydroxypropylcellulose) (HPC)
[2] = dose: 200.0 mg/kg/injection, schedule: Q04DX002 (ip), vehicle: Klucel (hydroxypropylcellulose) (HPC)
[3] = dose: 100.0 mg/kg/injection, schedule: Q01DX009 (ip), vehicle: saline with Tween-80
[4] = dose: 100.0 mg/kg/injection, schedule: Q04DX003 (ip), vehicle: saline with Tween-80
[5] = dose: 200.0 mg/kg/injection, schedule: Q04DX003 (ip), vehicle: saline with Tween-80
[6] = dose: 100.0 mg/kg/injection, schedule: Q01DX009 (ip), vehicle: Klucel (hydroxypropylcellulose) (HPC)
[7] = dose: 100.0 mg/kg/injection, schedule: Q04DX003 (ip), vehicle: Klucel (hydroxypropylcellulose) (HPC)
[8] = dose: 200.0 mg/kg/injection, schedule: Q01DX009 (ip), vehicle: Klucel (hydroxypropylcellulose) (HPC)
[9] = dose: 200.0 mg/kg/injection, schedule: Q04DX003 (ip), vehicle: Klucel (hydroxypropylcellulose) (HPC)
[10] = dose: 400.0 mg/kg/injection, schedule: Q01DX009 (ip), vehicle: Klucel (hydroxypropylcellulose) (HPC)
[11] = dose: 400.0 mg/kg/injection, schedule: Q04DX003 (ip), vehicle: Klucel (hydroxypropylcellulose) (HPC)
[12] = dose: 200.0 mg/kg/injection, schedule: Q01DX009 (ip), vehicle: saline with Tween-80
[13] = dose: 400.0 mg/kg/injection, schedule: Q01DX009 (ip), vehicle: saline with Tween-80
[14] = dose: 50.0 mg/kg/injection, schedule: Q04DX003 (ip), vehicle: saline
[15] = dose: 100.0 mg/kg/injection, schedule: Q04DX003 (ip), vehicle: saline
[16] = dose: 200.0 mg/kg/injection, schedule: Q04DX003 (ip), vehicle: saline
[17] = dose: 100.0 mg/kg/injection, schedule: Q01DX001 (ip), vehicle: saline
[18] = dose: 200.0 mg/kg/injection, schedule: Q01DX001 (ip), vehicle: saline
[19] = dose: 400.0 mg/kg/injection, schedule: Q04DX003 (ip), vehicle: saline with Tween-80

Measured: T/C

COc1ccc(C(=O)Nc2cccc3ccccc23)cc1
inactive: dose: 100.0 mg/kg/injection, schedule: Q01DX009 (ip), vehicle: carboxymethylcellulose (CMC) 95 % of control | [1] 108 % of control | dose: 100.0 mg/kg/injection, schedule: Q04DX002 (ip), vehicle: carboxymethylcellulose (CMC) 93 % of control and 97 % of control | dose: 100.0 mg/kg/injection, schedule: Q04DX003 (ip), vehicle: carboxymethylcellulose (CMC) 103 % of control | dose: 200.0 mg/kg/injection, schedule: Q01DX009 (ip), vehicle: carboxymethylcellulose (CMC) 98 % of control and 90 % of control | [2] 102 % of control | dose: 200.0 mg/kg/injection, schedule: Q04DX002 (ip), vehicle: carboxymethylcellulose (CMC) 95 % of control and 103 % of control | dose: 200.0 mg/kg/injection, schedule: Q04DX003 (ip), vehicle: carboxymethylcellulose (CMC) 103 % of control | dose: 400.0 mg/kg/injection, schedule: Q01DX009 (ip), vehicle: carboxymethylcellulose (CMC) 93 % of control and 87 % of control | dose: 400.0 mg/kg/injection, schedule: Q04DX002 (ip), vehicle: Klucel (hydroxypropylcellulose) (HPC) 112 % of control | dose: 400.0 mg/kg/injection, schedule: Q04DX002 (ip), vehicle: carboxymethylcellulose (CMC) 100 % of control and 101 % of control | dose: 400.0 mg/kg/injection, schedule: Q04DX003 (ip), vehicle: carboxymethylcellulose (CMC) 97 % of control

CCCOc1ccc([N+](=O)[O-])cc1N
inactive: dose: 100.0 mg/kg/injection, schedule: Q01DX001 (ip), vehicle: carboxymethylcellulose (CMC) 96 % of control | dose: 200.0 mg/kg/injection, schedule: Q01DX001 (ip), vehicle: carboxymethylcellulose (CMC) 100 % of control | dose: 400.0 mg/kg/injection, schedule: Q01DX001 (ip), vehicle: carboxymethylcellulose (CMC) 94 % of control

CN(C)N=C(Cc1ccccc1)Cc1ccccc1
inactive: dose: 50.0 mg/kg/injection, schedule: Q01DX009 (ip), vehicle: saline with Tween-80 97 % of control | [3] 103 % of control | [4] 103 % of control | [5] 106 % of control

CCCCCCCCCCCSCCSCCSCCCCCCCCCCC
inactive: dose: 100.0 mg/kg/injection, schedule: Q01DX001 (ip), vehicle: Klucel (hydroxypropylcellulose) (HPC) 88 % of control | dose: 200.0 mg/kg/injection, schedule: Q01DX001 (ip), vehicle: Klucel (hydroxypropylcellulose) (HPC) 95 % of control | dose: 400.0 mg/kg/injection, schedule: Q01DX001 (ip), vehicle: Klucel (hydroxypropylcellulose) (HPC) 90 % of control

c1ccc([P+](c2ccccc2)(c2ccccc2)C2CC2)cc1
inactive: dose: 5.0 mg/kg/injection, schedule: Q01DX001 (ip), vehicle: saline 93 % of control | dose: 10.0 mg/kg/injection, schedule: Q01DX001 (ip), vehicle: saline 101 % of control | dose: 20.0 mg/kg/injection, schedule: Q01DX001 (ip), vehicle: saline 104 % of control | dose: 40.0 mg/kg/injection, schedule: Q01DX001 (ip), vehicle: saline 104 % of control

COc1ccccc1NC(=O)Oc1ccc(-c2ccccc2)cc1Br
inactive: [6] 92 % of control | [7] 97 % of control | [8] 97 % of control | [9] 95 % of control | [10] 101 % of control | [11] 93 % of control

CCOC(=O)CNC(=O)C(CC(C)C)NC(=O)C1CCCN1C(=O)OCc1ccccc1 (stereo not drawn) (Cbz-Pro-Leu-Gly-OEt; configuration not given here)
inactive: [6] 105 % of control | [7] 107 % of control | [8] 89 % of control | [9] 93 % of control | [10] 110 % of control | [11] 98 % of control

CC(C)C1=CC23CCC4C(C)(C(=O)O)CCCC4(C)C2CC13 (stereo not given)
inactive: [3] 88 % of control | [12] 90 % of control | [13] 91 % of control

OCC1(CO)CCC1(CO)CO
inactive: dose: 75.0 mg/kg/injection, schedule: Q01DX001 (ip), vehicle: saline 106 % of control | dose: 75.0 mg/kg/injection, schedule: Q01DX009 (ip), vehicle: saline 105 % of control | dose: 150.0 mg/kg/injection, schedule: Q01DX001 (ip), vehicle: saline 102 % of control | dose: 150.0 mg/kg/injection, schedule: Q01DX009 (ip), vehicle: saline 105 % of control | dose: 300.0 mg/kg/injection, schedule: Q01DX001 (ip), vehicle: saline 98 % of control | dose: 300.0 mg/kg/injection, schedule: Q01DX009 (ip), vehicle: saline 97 % of control

CC1C[N-]1.CC1C[N-]1.[Cl][Pt+2][Cl] (stereo not given)
inactive: dose: 25.0 mg/kg/injection, schedule: Q01DX009 (ip), vehicle: saline 102 % of control | dose: 50.0 mg/kg/injection, schedule: Q01DX009 (ip), vehicle: saline 103 % of control | [14] 95 % of control | dose: 100.0 mg/kg/injection, schedule: Q01DX009 (ip), vehicle: saline 101 % of control | [15] 98 % of control | [16] 98 % of control

O=C(NS(=O)(=O)c1ccc(Cl)cc1)OCCCl
inactive: [7] 96 % of control | [9] 95 % of control | [11] 98 % of control

CC(C)(CO)CN1CCCC1
inactive: [17] 103 % of control | [18] 100 % of control

Nc1c(Cl)cc(S(=O)(=O)O)cc1Br
inactive: dose: 50.0 mg/kg/injection, schedule: Q01DX001 (ip), vehicle: saline 101 % of control | [17] 103 % of control | [18] 101 % of control | dose: 400.0 mg/kg/injection, schedule: Q01DX001 (ip), vehicle: saline 101 % of control

CCC[N+](CC)(CC)CCOC(=O)C1C2CC3OC(=O)C1C3C2 (stereo not given)
inactive: [15] 101 % of control

CS(=O)(=O)c1ccc(Br)cc1
inactive: [3] 103 % of control | [4] 90 % of control | [12] 102 % of control | [5] 98 % of control | [13] 102 % of control | [19] 96 % of control

CCCCCCCCCCCCCCCCCCNC(=O)C[N+](C)(C)Cc1ccccc1
inactive: dose: 3.13 mg/kg/injection, schedule: Q01DX009 (ip), vehicle: saline with Tween-80 93 % of control | dose: 6.25 mg/kg/injection, schedule: Q01DX009 (ip), vehicle: saline with Tween-80 98 % of control | dose: 12.5 mg/kg/injection, schedule: Q01DX009 (ip), vehicle: saline with Tween-80 89 % of control

CC[N+](C)(C)CCCOC(=O)C1C2CC3OC(=O)C1C3C2 (stereo not given)
inactive: dose: 25.0 mg/kg/injection, schedule: Q04DX003 (ip), vehicle: saline 101 % of control | [14] 105 % of control | [15] 103 % of control and 108 % of control | [16] 97 % of control

O=C(Nc1ccccc1F)Oc1ccc(Cl)cc1Cl
inactive: dose: 50.0 mg/kg/injection, schedule: Q01DX009 (ip), vehicle: Klucel (hydroxypropylcellulose) (HPC) 114 % of control | [6] 111 % of control | [1] 105 % of control | [8] 102 % of control | [2] 102 % of control

Cc1cc(N(CCCOS(C)(=O)=O)CCCOS(C)(=O)=O)ccc1C=Nc1ccc2ccccc2c1
inactive: dose: 25.0 mg/kg/injection, schedule: Q04DX003 (ip), vehicle: saline with Tween-80 98 % of control | dose: 50.0 mg/kg/injection, schedule: Q04DX003 (ip), vehicle: saline with Tween-80 98 % of control | [4] 98 % of control | [19] 93 % of control
